Reference: patent US20260232713A1, “PLECOMACROLIDE DERIVATIVES FOR MHC-I NEF DOWNMODULATION” (priority 2022, published 2026)
Several values for one entry are separate records, joined by “and”; a condition that tells them apart may be missing. Equal entries are not always repeated. Where two headings read alike, the source gives them in different places.

Tests used:
primary CD4+ T cells = experiment: in vitro; settings: for CC50: read-out: Viability (TC50), mock primary CD4+ T cells, 72 hours after treatment; for Viability:Nef (therapeutic window separating Nef IC50 and TC50): ratio TC50 to Nef IC50
Method: (§1) Inhibition of HIV-Nef was measured by assessing its capacity to downmodulate MHC-I HLA-A2 on the surface of primary CD4+ T cells 24-hours after treatment with each compound. V-ATPase inhibition was assessed at the same time point using lysosomal acidification as an indicator of V-ATPase activity. This was measured using a flow cytometric assay that quantified Lysotracker mean fluorescence intensity as previously described (Painter et al., 2020). Cell viability was measured at 24-hour and 72-hour time points using a previously described flow cytometric assay (Painter et al., 2020).
(§2) Anonymized leukocytes isolated by apheresis were obtained from New York Blood Center and peripheral blood mononuclear cells (PBMCs) were isolated by Ficoll-Paque Plus (17144002; GE Healthcare) centrifugation using SepMate tubes (85450; StemCell Technologies) according to the manufacturers protocol. […] Then, 20-24 hours post-PHA activation, 15 mL of R10/PHA medium is removed and replaced with 5 mL of R10+100u/mL Recombinant Human IL-2 (202|L010; R&D Systems). 48 hours after IL-2 stimulation, primary CD4^+ T cells were infected via spinoculation with previously described HIV ΔGPE construct.
(§3) 48 hours after spinoculation, cells were pooled and plated in flat bottom 96-well plate. […] Compounds were thawed at room temperature and diluted in R10 medium to 2× starting concentration.
(§4) All ΔGPE infected cells were collected 24 hours after treatment.
(§5) All Mock cells were collected 72 hours after treatment.
(§6) All statistical analyses were performed using GraphPad Prism software. Curves were generated using GraphPad Prism software using [Inhibitor] vs. response with variable slope (four parameters).

V-ATPase = target: T1, V-ATPase (Homo sapiens, UniProt P27449); experiment: Lysosomal acidification (Lysotracker mean fluorescence intensity) as indicator of V-ATPase activity in primary CD4+ T cells; assay type: cell-based
T1 construct: endogenous in cells; host or cells: primary CD4+ T cells (HIV ΔGPE infected) from donor PBMCs
Method: as §1, §2, §3, §4, §6

in vitro = settings: human
Method: as §1, §2, §3, §4, §5, §6

[1] = Lysotracker Red, ΔGPE infected primary CD4+ T cells, 24 hours after treatment, read-out: Lysotracker (V-ATPase IC50, lysosomal neutralization)

T1 sequence (P27449 whole entry, looked up): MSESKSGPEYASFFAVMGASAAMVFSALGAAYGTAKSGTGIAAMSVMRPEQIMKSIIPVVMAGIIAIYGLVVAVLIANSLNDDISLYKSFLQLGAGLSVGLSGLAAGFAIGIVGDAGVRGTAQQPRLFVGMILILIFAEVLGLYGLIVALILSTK

Row | IC50 (V-ATPase; [1]) | Molecule | Viability:Nef (therapeutic window separating Nef IC50 and TC50) (primary CD4+ T cells) | CC50 (in vitro) | IC50 (V-ATPase) | also measured
1 | 1720 nM | CC[C@H]1OC(=O)[C@H](C)[C@@H](O)[C@@H](C)C[C@@H](C)C(=O)/C=C/[C@H]1C [10-deoxymethynolide, reference compound] | 0.39 fold |  |  | CC50 at 72 h (in vitro): 140 nM
2 |  | CC=CC1OC(O)(C(C)C(O)C(C)C2OC(=O)C(OC)=CC(C)=CC(C)C(O)C(CC)C(O)C(C)CC(C)=CC=CC2OC)CC(OC2CC(O)C(OC(N)=O)C(C)O2)C1C (stereo not shown) [Compound 1, Concanamycin A, reference compound] | 6.6 fold | 1.3 nM | 1.7 nM | 
3 |  | CC=CC1OC(O)(C(C)C(O)C(C)C2OC(=O)C(OC)=CC(C)=CC(C)C(O)C(C)C(O)C(C)CC(C)=CC=CC2OC)CC(OC2CC(O)C(OC(N)=O)C(C)O2)C1C (stereo not shown) [Compound 4, concanamycin B, reference compound] | 5 fold and 5.5 fold | 7 nM | 26 nM | 
4 |  | C/C=C/[C@H]1O[C@@](O)([C@@H](C)[C@H](O)[C@H](C)[C@H]2OC(=O)/C(OC)=C/C(C)=C/[C@@H](C)[C@@H](O)[C@@H](CC)[C@@H](O)[C@H](C)C/C(C)=C/C=C/[C@@H]2OC)C[C@@H](O)[C@@H]1C [Compound 6, Concanamycin F] |  | 2.9 nM | 5.8 nM | 
5 |  | C/C=C/[C@H]1O[C@@](O)([C@@H](C)[C@H](O)[C@H](C)[C@H]2OC(=O)/C(OC)=C/C(C)=C/[C@@H](C)[C@@H](O)[C@@H](C)[C@@H](O)[C@H](C)C/C(C)=C/C=C/[C@@H]2OC)C[C@@H](O)[C@@H]1C [Compound 7, Concanamycin X] |  | 14 nM | 38 nM | 
6 |  | C/C=C/[C@H]1O[C@@](O)([C@@H](C)[C@H](O)[C@H](C)[C@H]2OC(=O)/C(OC)=C/C(C)=C/[C@@H](C)[C@@H](O)[C@@H](CC)[C@@H](O)[C@H](C)C/C(C)=C/C=C/[C@@H]2OC)C[C@@H](O[C@@H]2C[C@H](OC(=O)CCCC)[C@@H](OC(N)=O)[C@H](C)O2)[C@@H]1C [Compound 8, 3-pentanoate Concanamycin A] | 4.8 fold | 3.5 nM | 11 nM | 
7 |  | C/C=C/[C@H]1O[C@@](O)([C@@H](C)[C@H](O)[C@H](C)[C@H]2OC(=O)/C(OC)=C/C(C)=C/[C@@H](C)[C@@H](O)[C@@H](C)[C@@H](O)[C@H](C)C/C(C)=C/C=C/[C@@H]2OC)C[C@@H](O[C@@H]2C[C@H](OC(=O)CCCC)[C@@H](OC(N)=O)[C@H](C)O2)[C@@H]1C [Compound 9, 3-pentanoate Concanamycin B] | 7.9 fold | 27 nM | 110 nM | 
8 |  | C/C=C/[C@H]1O[C@@](O)([C@@H](C)[C@H](O)[C@H](C)[C@H]2OC(=O)/C(OC)=C/C(C)=C/[C@@H](C)[C@@H](O)[C@@H](C)[C@@H](OC(=O)CCCC)[C@H](C)C/C(C)=C/C=C/[C@@H]2OC)C[C@@H](O[C@@H]2C[C@H](OC(=O)CCCC)[C@@H](OC(N)=O)[C@H](C)O2)[C@@H]1C [Compound 10, 3′,9-Dipentanoate Concanamycin B] | 5.8 fold | 35 nM | 130 nM | 
9 |  | C/C=C/[C@H]1O[C@@](O)([C@@H](C)[C@H](O)[C@H](C)[C@H]2OC(=O)/C(OC)=C/C(C)=C/[C@@H](C)[C@@H](O)[C@@H](C)[C@@H](O)[C@H](C)C/C(C)=C/C=C/[C@@H]2OC)C[C@@H](O[C@@H]2C[C@H](OC(=O)CCCCCCCC)[C@@H](OC(N)=O)[C@H](C)O2)[C@@H]1C [Compound 11, 3-nonanoate Concanamycin B] | 4.3 fold | 36 nM | 170 nM | 
10 |  | C/C=C/[C@H]1O[C@@](O)([C@@H](C)[C@H](O)[C@H](C)[C@H]2OC(=O)/C(OC)=C/C(C)=C/[C@@H](C)[C@@H](O)[C@@H](C)[C@@H](O)[C@H](C)C/C(C)=C/C=C/[C@@H]2OC)C[C@@H](O[C@@H]2C[C@H](OC(C)=O)[C@@H](OC(N)=O)[C@H](C)O2)[C@@H]1C [Compound 12, 3′-Acetyl Concanamycin B] | 8 fold and 8.0 fold | 5.3 nM | 20 nM | 
11 |  | C/C=C/[C@H]1O[C@@](O)([C@@H](C)[C@H](O)[C@H](C)[C@H]2OC(=O)/C(OC)=C/C(C)=C/[C@@H](C)[C@@H](O)[C@@H](C)[C@@H](OC(C)=O)[C@H](C)C/C(C)=C/C=C/[C@@H]2OC)C[C@@H](O[C@@H]2C[C@H](OC(C)=O)[C@@H](OC(N)=O)[C@H](C)O2)[C@@H]1C [Compound 13, 3′,9-Diacetyl CMB] | 8.8 fold | 8 nM | 38 nM | 
12 |  | C/C=C/[C@H]1O[C@@](O)([C@@H](C)[C@H](O)[C@H](C)[C@H]2OC(=O)/C(OC)=C/C(C)=C/[C@@H](C)[C@@H](O)[C@@H](CC)[C@@H](O)[C@H](C)C/C(C)=C/C=C/[C@@H]2OC)C[C@@H](O[C@@H]2C[C@H](OC(C)=O)[C@@H](OC(N)=O)[C@H](C)O2)[C@@H]1C [Compound 14, 3′-Acetyl CMA] | 8.5 fold | 1.6 nM | 3.7 nM | 
13 |  | C/C=C/[C@H]1O[C@@](O)([C@@H](C)[C@H](O)[C@H](C)[C@H]2OC(=O)/C(OC)=C/C(C)=C/[C@@H](C)[C@@H](O)[C@@H](CC)[C@@H](OC(C)=O)[C@H](C)C/C(C)=C/C=C/[C@@H]2OC)C[C@@H](O[C@@H]2C[C@H](OC(C)=O)[C@@H](OC(N)=O)[C@H](C)O2)[C@@H]1C [Compound 15, 3′,9-diacetyl CMA] | 11 fold | 3.9 nM | 7.9 nM | 
14 | > 1000 nM | COc1cc2c(O)c3c(c(-c4ccc5c(c4)OCO5)c2cc1OC)C(=O)OC3 [Compound S1, Diphyllin, reference compound] |  |  |  | CC50 at 72 h (in vitro): > 1000 nM
15 |  | C[C@@H]1C[C@H](C)C[C@H](C)[C@@H](O)CC(=O)O[C@H]([C@@H]2CCC[C@H]2C(=O)O)C/C=C/C=C(/C#N)[C@H](O)[C@@H](C)C1 [Compound S2, Borrelidin, reference compound] | 2.0 fold |  | 165 nM | Toxicity at 24 hours (primary CD4+ T cells; 24-hour time point): toxic at 24-hours; CC50 at 72 h (in vitro; mock-infected primary CD4+ T cells): 91 nM
16 |  | C=CC(C)C(OC(=O)[C@@H](C)[C@H](O)[C@H](C)[C@H]1OC(=O)/C(OC)=C/C(C)=C/[C@@H](C)[C@@H](O)[C@@H](C)C/C(C)=C/C=C/[C@@H]1OC)C(C)C (stereo partly shown) [Compound S8] |  | 520 nM | > 1000 nM | 
17 |  | CO/C1=C\C(C)=C\[C@@H](C)[C@@H](O)[C@@H](C)C/C(C)=C/C=C/[C@H](OC)[C@@H]([C@@H](C)[C@@H](O)[C@H](C)[C@@]2(O)C[C@@H](OC(=O)c3ccccc3)[C@H](C)[C@@H](C(C)C)O2)OC1=O [Compound S13] |  | 130 nM | 140 nM | 
18 | > 1000 nM | CO[C@H]1/C=C/O[C@@]2(C)Oc3c(C)c(O)c4c(O)c(c(/C=N/N5CCN(C)CC5)c(O)c4c3C2=O)NC(=O)/C(C)=C\C=C\[C@H](C)[C@H](O)[C@@H](C)[C@@H](O)[C@@H](C)[C@H](OC(C)=O)[C@@H]1C [Compound S26, Rifampicin, reference compound] |  |  |  | CC50 at 72 h (in vitro): > 1000 nM
19 | > 1000 nM | CCC1OC(=O)C(C)C(OC2OC(C)CC(N(C)C)C2O)C(C)CC(C)C(=O)C=CC1C (stereo not shown) [Compound S30, YC-17, reference compound] |  |  |  | CC50 at 72 h (in vitro): > 1000 nM
20 | > 1000 nM | CC[C@H]1OC(=O)[C@H](C)[C@@H](O[C@H]2C[C@@](C)(OC)[C@@H](O)[C@H](C)O2)[C@H](C)[C@@H](O[C@@H]2O[C@H](C)C[C@H](N(C)C)[C@H]2O)[C@](C)(O)C[C@@H](C)C(=O)[C@H](C)[C@@H](O)[C@H]1C [Compound S32, Erythromycin B, reference compound] |  |  |  | CC50 at 72 h (in vitro): > 1000 nM
21 | > 1000 nM | CC[C@H]1OC(=O)[C@H](C)C(=O)[C@H](C)[C@@H](O[C@@H]2O[C@H](C)C[C@H](N(C)C)[C@H]2O)[C@@H](C)C[C@@H](C)C(=O)/C=C/[C@H]1C [Compound S33, Narbomycin, reference compound] |  |  |  | CC50 at 72 h (in vitro): > 1000 nM
22 |  | CC1=CC[C@H]2O[C@]1(C)O[C@H]([C@H](C)/C=C(C)/C=C/C(O)=C1/C(=O)CNC1=O)[C@H]2C [Tirandamycin C, reference compound] |  | > 1000 nM | > 1000 nM | 

Row | Molecule | IC50 (V-ATPase; [1]) | Viability:Nef (therapeutic window separating Nef IC50 and TC50) (primary CD4+ T cells) | CC50 (in vitro) | IC50 (V-ATPase) | also measured
23 | 23-OH-tylactone [Compound S46, reference compound] | > 1000 nM |  |  |  | CC50 (primary CD4+ T cells): > 1000 nM
24 | C/C=C/[C@H]1O[C@@](O)([C@@H](C)[C@H](O)[C@H](C)[C@H]2OC(=O)/C(OC)=C/C(C)=C/[C@@H](C)[C@@H](O)[C@@H](CC)[C@@H](O)[C@H](C)C/C(C)=C/C=C/[C@@H]2OC)C[C@@H](O[C@H]2C[C@@H](O)[C@H](O)[C@@H](C)O2)[C@@H]1C [Compound 5, concanamycin C, reference compound] | 3.7 nM | 2.3 fold |  |  | CC50 (primary CD4+ T cells): 1.3 nM
25 | Des-tylactone [Compound S47, reference compound] | > 1000 nM |  |  |  | CC50 (primary CD4+ T cells): > 1000 nM
